# Results taken from paper PMC3514216, “SRC Homology 2 Domain Binding Sites in Insulin, IGF-1 and FGF receptor mediated signaling networks reveal an extensive potential interactome” (Cell Communication and Signaling : CCS, 2012).
# Tested on: panel of 50 SH2 domains
# Assay: SPOT peptide array probed with each of 50 GST-SH2 domains
# Format: binding
# Conditions: SPOT192 peptide array; for SH2 Domains >3X: list of GST-SH2 domains with spot intensity >3X array mean (array-positive); for 2X < SH2 Domains < 3X: list of GST-SH2 domains with spot intensity between 2X and 3X array mean (indeterminate range)
# Excerpt: The use of addressable peptide arrays is a reproducible and semi-quantitative approach that has been extensively validated for studying protein interactions with peptide ligands. To investigate connections between SH2 domain proteins and their putative phosphorylated docking sites on cell surface receptors, we developed addressable arrays consisting of 192 phosphotyrosine peptides. This peptide set was assembled using 71 phosphotyrosine peptide motifs corresponding to all of the cytoplasmic tyrosine residues within the FGF receptors (FGFR1-4), insulin receptor (InsR) and IGF-1 receptor (IGF-1R) (Figure 1A). Activation of these receptors results in the phosphorylation of associated scaffold proteins, and so 75 phosphotyrosine peptides corresponding to a comprehensive list of tyrosine residues within insulin receptor substrates (IRS-1 and IRS-2) and fibroblast receptor substrates (FRS-2 and FRS-3) were included. In addition, 33 phosphotyrosine peptides were incorporated from the downstream signaling proteins PLC-γ1, p130Cas (BCAR1) and p62DOK1. […] These control peptides provide a reference and establish the empirical cut-off for designated binding interactions (Table 1). No discrimination was made against peptides on the basis of reported phosphorylation state in order to examine a diverse and unbiased set of motifs. The resulting set of 192 phosphotyrosine peptides and their corresponding position in the proteins of origin is noted in Additional file 1: Table S1. Addressable arrays were synthesized as membrane-bound 11-mer peptides using the SPOT synthesis technique. While the majority of SH2 domains recognize residues C-terminal to the phosphotyrosine in their cognate peptide ligands, additional contacts between SH2 domains and residues N-terminal to the phosphotyrosine are observed for the SH2 domain of Sh2d1a (SAP) and cannot be ruled out in other cases. Peptides were synthesized with six flanking residues C-terminal to the phosphotyrosine and four residues N-terminal to the phosphotyrosine.
# To assess the potential network of SH2 domain interactions we selected 50 SH2 domains representing 28 of the 38 families of SH2 domains (Figure 1B) all of which we have previously shown can be expressed and purified. These include a number of extensively studied SH2 domains (Src, Grb2, PLCγ), as well as a number of less studied SH2 domains from proteins such as Shd, She, Shf, Slnk (Sh2d6), Sh2d1a (SAP), Sh2d1b (Eat-2), and Brdg1. To address potential variability in specificity within families we employed all members from the SHB, CRK, GRB2, SRC and ABL families (families are indicated with complete Capitalized lettering).
# SH2 domains were arrayed as GST fusion proteins and detected using anti-GST primary antibodies and near-infrared labeled secondary antibodies. In an effort to present a dataset with minimal false positives, we chose an empirical cutoff based on the array average across all peptide spots to classify interactions (Figure 1A). In cases where the intensity of the signal for an individual SH2-domain binding event exceeded the mean intensity of all the peptides on the membrane by three-fold were scored as “array positives” [22]. Non-binding was judged in cases where the intensity of a spot was less than the mean intensity of all spots on the membrane and these were scored as “array negatives”. Peptides with signal intensities between 1X and 3X mean were scored as “indeterminate” and ascribed as neither array positive binding interactions nor array-negative non-binders. […] This signature may be indicative of promiscuity differences between phosphopeptides or there may be a subset of peptides which interact in a nonspecific fashion with either the GST fusion tag or one of the antibodies used for detection, resulting in false positives. […]
Substance,SH2 Domains >3X,2X < SH2 Domains < 3X
AEPDpYGALYEG [H01],"FGR, FYN, HCK, LYN, SH2D1B, SHC1, SHIP1, SLNK, SRC, YES, ZAP70_N","BLK, BMX, LCK"
DNLPpYVQILKT [E03],"BRDG1, MIST, PI3K1_N, PTPN11_C, Sh2b, TENC1","BCAR3, FER, GRAP, MATK, PI3K1_C, PTPN11_N, RIN1, SHD"
RTELpYAVIDIE [G10],"ABL2, BMX, ITK, MIST, PLCG2_C, RASA1_N, Sh2b, SH2D1B, SHB, SHF, SHE, SYK_C","ABL1, BRK, RASA1_C, SHD, YES"
APVSpYADMRTG [C21],,MIST
AEDSpYGLVAPA [D06],"FGR, FYN, HCK, LCK, LYN, SH2D1B, SHC1, SHIP1, SRC, YES",BLK
KKPLpYWDLYEH [H17],"ABL1, BCAR3, BMX, CRKL, DAPP1, GRB7, ITK, MATK, PLCG2_N, PLCG2_C, RASA1_N, RASA1_C, SH2D2A, SH3BP2, TENC1","PI3K1_C, Sh2b"
EDPIpYDEPEGL [H19],"ABL1, BLK, HCK, NCK1, SHC1, SLNK, SRC","BMX, LCK, LYN, YES"
RGMQpYLESRKA [F15],"BCAR3, BRDG1, TENC1","BMX, ITK, MIST, PLCG2_N, PLCG2_C, SHF"
PGMEpYSYDINR [E21],"BRDG1, GRB7","LCK, RASA1_N"
EQDEpYDIPRHL [H10],"BRK, CRK, CRKL, FGR, FYN, LCK, LYN, RIN1, SHC1, YES","ABL1, BLK, HCK, PI3K1_N, SH2D1B, SHIP1, SRC"
AKHKpYLIALYT [D02],"BRDG1, BRK","BCAR3, BMX, FER, PLCG2_N, PTPN11_C, RIN1, SHF, TENC1"
WRGDpYGGKKQL [H04],"BCAR3, BRDG1, BRK, DAPP1, FER, MIST, RIN1, TENC1","BMX, ITK, PLCG2_N, Sh2b, SH3BP2, SHF, SHD, SYK_C"
EFYGpYMTMDRP [D11],PI3K1_C,
RRYGpYDSNLFS [F23],"ABL1, BCAR3, BMX, BRDG1, CRK, CRKL, FER, MATK, SHB, SHD, TENC1","PLCG2_N, PTPN11_C, SH2D2A, SHF"
NALGpYTVSSFS [G11],"ABL2, CRK, CRKL, GRB7, MATK, SH2D2A",ABL1
MCKVpYSDPQPH [E02],CRKL,
VSFYpYSEENKP [B16],"ABL1, BCAR3","ABL2, MATK"
SQVNpYRVPNMR [G16],"BCAR3, BRDG1, MIST, PLCG2_N, SHF, TENC1","BMX, CRKL, PLCG2_C"
ENSLpYSPTWEG [H14],"ABL2, FYN, LYN, NCK1, SHC1, VAV1","ABL1, BLK, LCK, SH2D1B, SHIP1"
GDITpYGQFAQL [G17],,GRB7
EDLSpYGDVPPG [B23],"ABL1, BRK, FGR, FYN, LCK, LYN, SH2D1B, SHC1, SHIP1, SLNK, YES","BLK, HCK, GRB7"

Substance,SH2 Domains >3X,2X < SH2 Domains < 3X
PRLEpYYESEKK [C24],,ZAP70_N
CGRSpYRRVSGD [D12],BCAR3,"BRDG1, ITK, MIST, PLCG2_N, SHB, SHF, SYK_C, TENC1"
PPALpYAEPLDS [H15],"ABL1, ITK, NCK1, RASA1_N, RASA1_C, VAV1, ZAP70_N",ABL2
DGPLpYVIVEYA [E06],"ITK, MIST, RASA1_N, SHB, SHF, SHE, SYK_C","SHD, TENC1"
LIGIpYRLCLTS [B24],,"BCAR3, BRDG1, MIST, SHD"
CLRRpYGYDSNL [F22],"BCAR3, BMX, BRDG1, CRK, CRKL, DAPP1, FER, GRB7, MATK, MIST, PLCG2_N, SHB, SHF, SHD, TENC1","ITK, PLCG2_C, PTPN11_C, RIN1, SH2D2A, SH3BP2"
YELPpYNPATDD [H22],SLNK,
STDEpYLDLSAP [F11],LCK,
TFGPpYSPSGGD [F19],,ZAP70_N
PCSVpYVPDEWE [A20],"BMX, DAPP1, ITK, PLCG2_N, PLCG2_C, RASA1_N, RASA1_C, SH2D1B, VAV1","FGR, FYN, MATK, SH2D2A, SHC1"
GGPLpYVLVEYA [F07],"MIST, RASA1_N, SHE, SYK_C, ZAP70_N","ITK, SHD"
PFEQpYSPGGQD [F12],,ZAP70_N
PNGDpYLNVSPS [D21],"GADS, GRAP, GRB2, GRB7, VAV1","HCK, PI3K1_N, SH2D1B, SHIP1"
QVHTpYVNTTGV [G02],"GADS, GRAP, GRB2, GRB7, PI3K1_N, PI3K1_C","ABL1, ZAP70_N"
NPGNpYTARIQA [B08],"BRDG1, MIST, PLCG2_N, PTPN11_C, SHF, SHD, SYK_C","DAPP1, Sh2b, SH3BP2, SHB, SHE"
TEPTpYFYVTDY [A14],"BRK, ITK, RASA1_N","MATK, PLCG2_N, SH2D1B, SYK_C"
NGLNpYIDLDLV [C22],"BCAR3, ITK, PLCG2_C, PTPN11_N, RASA1_N, Sh2b, SHB, SHF, SHD, SHE, TENC1","DAPP1, FGR, LCK, LYN, RASA1_C, SYK_C, YES"
WDTGpYDSDERR [G03],"SH3BP2, SRC","DAPP1, FER, HCK, ZAP70_N"
DPNGpYMMMSPS [C07],PI3K1_C,
PVAPpYWTSPEK [E01],,ABL1
YWDLpYEHAQQQ [H18],"ABL1, BCAR3, BMX, FER, ITK, MATK, RASA1_N, RASA1_C, SH3BP2, SHB, TENC1",CRKL

Substance,SH2 Domains >3X,2X < SH2 Domains < 3X
SGTSpYGKLWTN [C08],"BCAR3, BMX, BRDG1, CRK, FER, MIST, PTPN11_C, SH2D1B, SHC1, SHF, SYK_C, TENC1","CRKL, DAPP1, GADS, ITK, MATK, PLCG2_C, PTPN11_N, RIN1, Sh2b, SH3BP2, SHB, SHD, SHE, YES"
QQGLpYQVPGPS [H07],"CRK, CRKL",
SVIVpYKMKSGT [E04],"BCAR3, BMX, BRDG1, TENC1","BRK, FER, MIST, PTPN11_C, SHF, SHD, SYK_C"
TRDIpYETDpYpYR [A13],"ABL2, BCAR3, CRK, CRKL, DAPP1, GRB7, PI3K1_C, PLCG2_C","FGR, HCK, RASA1_N, SH2D1B, SRC, FGR, GRB7, LCK, LYN, MIST, RIN1"
QEGWpYRALTDL [D05],CRK,"ABL1, ABL2, TENC1"
ATDLpYQVPPGP [H08],CRK,CRKL
RSDDpYMPMSPA [D19],,PI3K1_C
QDSLpYSDPLDS [H16],"ABL1, FYN, HCK, LCK, LYN, NCK1, RASA1_C, SRC, ZAP70_N","BLK, FGR, SHIP1"
EDSGpYMRMWAG [D20],"FYN, PI3K1_C",LCK
DGMApYLNAKKF [A23],"BCAR3, BMX, BRDG1, FER, GRB2, MIST, PTPN11_N, PTPN11_C, RIN1, Sh2b, SHF, SHD, TENC1","BRK, DAPP1, FGR, ITK, MATK, PI3K1_N, PI3K1_C, PLCG2_N, PLCG2_C, SH3BP2, SHB, SHE, YES"
EDDGpYDVPKPP [A03],"CRK, CRKL, FGR, HCK, SHIP1, SRC, YES","ABL1, BLK, FYN, LYN"
AEPQpYEEIPIY [A10],"BLK, BRK, FER, FGR, HCK, LYN, NCK1, PLCG2_C, SHC1, SRC, YES","ABL1, BMX, DAPP1, FYN, LCK, RIN1, SH2D1B, SRC"
LTGVpYRLCLSA [D08],,"BCAR3, BRDG1, MIST, TENC1"
HIDYpYKKTTNG [E14],"BCAR3, BMX, BRDG1, CRK, FER, MIST, PTPN11_C, SHF, TENC1","CRKL, ITK, PLCG2_N, PLCG2_C, PTPN11_N, RIN1, SH3BP2, SHB, SHD, SYK_C, ZAP70_N"
LIALpYTKDEYF [D03],SH2D2A,"ABL1, PLCG2_C"
ALLNpYENLPSL [G05],"ABL1, ABL2, CRK, FER, GADS, GRAP, GRB2, GRB7, PI3K1_C, SH2D2A, SH3BP2, TENC1","BRK, PI3K1_N"
YPEDpYGDIEIG [D17],"BMX, BRK, FGR, SLNK, SRC","BLK, FER, FYN, HCK, GRB7, ITK, LCK, LYN, RASA1_N, SH2D1B, SHC1, YES"
VKWHpYLALRRY [F21],"BCAR3, BMX, BRDG1, BRK, DAPP1, FER, GRB2, MATK, MIST, PI3K1_N, PI3K1_C, PLCG2_N, PLCG2_C, PTPN11_N, PTPN11_C, RIN1, Sh2b, SH3BP2, SHB, SHF, SHD, TENC1","FGR, ITK, RASA1_C, SH2D2A, SHE, SYK_C"
RKRTpYSLTTPA [D13],"BCAR3, BRDG1, ITK, PLCG2_N, TENC1","BMX, BRK, MIST, SHB, SHF"
QDSWpYQALLQL [B22],"ABL2, BCAR3, CRK, MATK, SH2D2A, SYK_C, TENC1, VAV1","BMX, GADS, RIN1, Sh2b, SHD"
